In US20210278408A1, “METHODS OF TREATMENT OF CANCER WITH SUBSTITUTED PYRROLE AND PYRAZOLE COMPOUNDS AND DIAGNOSIS OF CANCERS SUSCEPTIBLE TO TREATMENT WITH SUBSTITUTED PYRROLE AND PYRAZOLE COMPOUNDS” (Bantam Pharmaceutical, LLC, priority 2018, published 2021):

Test system: 406 cancer cell lines, 73 blood tumor cell lines and 333 solid tumor cell lines
Assay: OmniScreen drug efficacy on cancer cell lines, fitted area under curve (AUC) of dose-response
Type: cell-based
Set-up: AUCs: unit not given beside the values
Description: Predictive biomarkers for genes indicating responsiveness to a therapeutic compound can be determined using a cell-based screening technique, such as that offered under the name OmniScreen™ (Crown Biosciences).
In one experimental study, predictive biomarkers were determined for Compound A197 efficacy on 406 cancer cell lines, 73 blood tumor cell lines and 333 solid tumor cell lines. Genomic data for the cell lines was downloaded from the Cancer Cell Line Encyclopedia Project (CCLE) website. Driver mutations were predicted on the Cancer Genome Interpreter Database; only driver mutations were used in the mutation related analysis.
Dose-response curves were fitted by the 4-parameter model:
in which top and bottom are the two asymptotes of the sigmoidal curve, EC50 is the relative IC50, and concentration x is in log−10 scale. To accommodate experimental errors, Bottom was allowed to go down to −20%, and Top was allowed to go up to 120%. The fitting error of a model is measured by
σECS0 is the standard error of EC50. In general, such fitting error should be less than 40% for a model to be considered acceptable. The fitted area under curve (AUC) is calculated by
where a=log(3, 10) and b=log(30000,10).

`Cc1nn(-c2nc(-c3ccc(C(F)(F)F)cc3)c(SC(C)C)s2)c(C(=O)O)c1-c1cccc(F)c1` [Compound A197, 4-(3-fluorophenyl)-1-(5-(isopropylthio)-4-(4-(trifluoromethyl)phenyl)thiazol-2-yl)-3-methyl-1H-pyrazole-5-carboxylic acid] was tested, and the AUCs (22Rv1, Prostate) was 2.52, the AUCs (8505C, H&N/Thyroid) was 3.78 and the AUCs (A253, Submaxillary gland) was 3.32. The AUCs (A875, Skin) was 3.84, the AUCs (A2058, Skin) was 3.64 and the AUCs (A2780, Ovary) was 2.43. The AUCs (A2780cis, Ovary) was 2.68, the IC50 (A2780cis, Ovary) was 0.541 µM and the AUCs (A-172, Brain&Nerves) was 3.29. It also gave an AUCs (A-204, Muscle) of 3.66, an AUCs (A-375, Skin) of 3.42 and an AUCs (A-427, Lung) of 3.59. The AUCs (A-431, Skin) was 2.96, the AUCs (A-673, Muscle) was 2.78 and the AUCs (AGS, Stomach/Gastric) was 3.63. For the same compound, the IC50 (AGS, Stomach/Gastric) was 205 µM, the AUCs (AN3 CA, Uterus) was 3.88 and the AUCs (ARH-77, Blood) was 3.22. For the same compound, the AUCs (ASH-3, H&N/Thyroid) was 3.41, the “responsiveness of blood tumor cell lines versus solid tumor cell lines” value (AUC, Welch's t-test P-value 2.3e-16) was “more likely to be responsive” and the AUCs (AsPC-1, Pancreas) was 3.59. The AUCs (BT-20, Breast) was 3.2, the AUCs (BT-483, Breast) was 3.43 and the AUCs (BxPC-3, Pancreas) was 2.97. The AUCs (C4-2, Prostate) was 3.61, the AUCs (C666-1, Nose) was 3.15 and the AUCs (C-33 A, Uterus) was 3.7. For the same compound, the AUCs (CAL-27, Tongue) was 3.17, the AUCs (CFPAC-1, Pancreas) was 3.56 and the AUCs (COV644, Ovary) was 3.69. For the same compound, the AUCs (Ca Ski, Uterus) was 4.35, the AUCs (Caki-2, Kidney) was 3.53 and the AUCs (Calu-6, Lung) was 3.21. For the same compound, the AUCs (Caov-3, Ovary) was 3.65, the AUCs (Capan-1, Pancreas) was 3.82 and the AUCs (Capan-2, Pancreas) was 3.28. The AUCs (CoC1, Ovary) was 2.95, the AUCs (CoC1/DDP, Ovary) was 3.33 and the AUCs (D283 Med, Brain&Nerves) was 3.28. The AUCs (DMS 79, Lung) was 4.09, the AUCs (DMS 114, Lung) was 3.56 and the AUCs (DU 145, Prostate) was 2.99. It also gave an AUCs (DV-90, Lung) of 3.1, an AUCs (Daoy, Brain&Nerves) of 3.14 and an AUCs (Detroit 562, Pharynx) of 3.54. For the same compound, the AUCs (DoTc2 4510, Uterus/Cervix) was 3.9, the AUCs (EBC-1, Lung) was 3.47 and the AUCs (ES-2, Ovary) was 3.75. The IC50 (ES-2, Ovary) was 70.8 µM, the AUCs (FaDu, Pharynx) was 2.9 and the AUCs (GTL-16, Stomach/Gastric) was 3.18. The AUCs (HCC 94, Uterus) was 2.92, the IC50 (HCC 94, Uterus) was 0.806 µM and the AUCs (HCC1187, Breast) was 3.63. The AUCs (HCC1500, Breast) was 3.27, the AUCs (HCC1806, Breast) was 3.39 and the AUCs (HCC1937, Breast) was 3.36. For the same compound, the AUCs (HCC1954, Breast) was 3.44, the AUCs (HCC2218, Breast) was 3.48 and the AUCs (HCC2935, Lung) was 3.49. It also gave an AUCs (HCCC-9810, Liver) of 3.64, an AUCs (HCCLM3, Liver) of 3.87 and an AUCs (HEC-1-A, Uterus) of 3.28. The AUCs (HEC-1-B, Uterus) was 2.85, the AUCs (HGC-27, Stomach/Gastric) was 2.39 and the AUCs (HLE, Liver) was 3.3. It also gave an AUCs (HLF, Liver) of 3.43, an AUCs (HPAC, Pancreas) of 2.98 and an AUCs (HT-3, Uterus/Cervix) of 3.91. The IC50 (HT-3, Uterus/Cervix) was 30.1 µM, the AUCs (HT-55, Large intestine/Colorectum) was 4 and the AUCs (HT-1080, Soft tissue) was 3.07. For the same compound, the AUCs (HT-1376, Bladder) was 4.11, the AUCs (HUH-1, Liver) was 3.81 and the AUCs (HeLa 229, Cervix) was 3.37. For the same compound, the AUCs (Hep3B, Liver) was 3.5, the IC50 (Homo sapiens, 22Rv1, 22Rv1, Prostate) was 1.09 µM and the IC50 (Homo sapiens, A204, A-204, Muscle) was 184 µM. The IC50 (Homo sapiens, A673, A-673, Muscle) was 0.701 µM, the IC50 (Homo sapiens, A2780, A2780, Ovary) was 0.863 µM and the IC50 (Homo sapiens, A-375, A-375, Skin) was 28.1 µM. For the same compound, the IC50 (Homo sapiens, A-431, A-431, Skin) was 1.11 µM, the IC50 (Homo sapiens, AN3-CA, AN3 CA, Uterus) was 45.6 µM and the IC50 (Homo sapiens, BXPC-3, BxPC-3, Pancreas) was 0.351 µM. The IC50 (Homo sapiens, C6661, C666-1, Nose) was 24.6 µM, the IC50 (Homo sapiens, CAL-27, CAL-27, Tongue) was 3.42 µM and the IC50 (Homo sapiens, Ca-Ski, Ca Ski, Uterus) was 41.3 µM. For the same compound, the IC50 (Homo sapiens, DMS-79, DMS 79, Lung) was 420 µM, the IC50 (Homo sapiens, DU-145, DU 145, Prostate) was 0.835 µM and the IC50 (Homo sapiens, FaDu, Pharynx) was 0.341 µM. For the same compound, the IC50 (Homo sapiens, HEC-1B, HEC-1-B, Uterus) was 0.438 µM, the IC50 (Homo sapiens, HGC-27, HGC-27, Stomach/Gastric) was 0.513 µM and the IC50 (Homo sapiens, HPAC, Pancreas) was 0.467 µM. It also gave an IC50 (Homo sapiens, HT-1080, HT-1080, Soft tissue) of 0.99 µM, an IC50 (Homo sapiens, HuTu80, Hutu 80, Small intestine/Duodenum) of 0.88 µM and an IC50 (Homo sapiens, Ishikawa, Uterus) of 0.297 µM. For the same compound, the IC50 (Homo sapiens, JEG-3, JEG-3, Placenta) was 0.993 µM, the IC50 (Homo sapiens, LNCaP-Clone-FGC, LNCaP clone FGC, Prostate) was 0.172 µM and the IC50 (Homo sapiens, ME-180, ME-180, Uterus) was 0.562 µM. The IC50 (Homo sapiens, MES-SA, Uterus) was 0.48 µM, the IC50 (Homo sapiens, MES-SA/Dx5, MES-SA/DX5, Uterus) was 0.342 µM and the IC50 (Homo sapiens, MIA PaCa-2, MIA PaCa-2, Pancreas) was 2.91 µM. For the same compound, the IC50 (Homo sapiens, MKN-1, MKN1, Stomach/Gastric) was 5.36 µM, the IC50 (Homo sapiens, NCI-H146, NCI-H146, Lung) was 42.6 µM and the IC50 (Homo sapiens, NCI-H187, NCI-H187, Lung) was 8.36 µM. For the same compound, the IC50 (Homo sapiens, NCI-H226, NCI-H226, Lung) was 2.23 µM, the IC50 (Homo sapiens, NCI-H446, NCI-H446, Lung) was 30.5 µM and the IC50 (Homo sapiens, NCI-H526, NCI-H526, Lung) was 212 µM. For the same compound, the IC50 (Homo sapiens, NCI-H1648, NCI-H1648, Lung) was 72.9 µM, the IC50 (Homo sapiens, NCI-H2452, NCI-H2452, Lung) was 70.8 µM and the IC50 (Homo sapiens, NUGC-3, NUGC-3, Stomach/Gastric) was 26.5 µM. It also gave an IC50 (Homo sapiens, NUGC-4, NUGC-4, Stomach/Gastric) of 1.35 µM, an IC50 (Homo sapiens, OVCAR-8, OVCAR-8, Ovary) of 1.02 µM and an IC50 (Homo sapiens, PANC-1, PANC-1, Pancreas) of 2.61 µM. It also gave an IC50 (Homo sapiens, RL95-2, RL95-2, Uterus) of 0.416 µM, an IC50 (Homo sapiens, RPMI-2650, RPMI-2650, Nose) of 0.843 µM and an IC50 (Homo sapiens, SCC-4, SCC-4, Tongue) of 833 µM. It also gave an IC50 (Homo sapiens, SCC-9, SCC-9, Tongue) of 26.1 µM, an IC50 (Homo sapiens, SK-MEL-5, SK-MEL-5, Skin) of 75.1 µM and an IC50 (Homo sapiens, SK-MEL-28, SK-MEL-28, Skin) of 105 µM. For the same compound, the IC50 (Homo sapiens, SK-OV-3, SK-OV-3, Ovary) was 84.9 µM, the IC50 (Homo sapiens, SNU1, SNU-1, Stomach/Gastric) was 12.6 µM and the IC50 (Homo sapiens, SNU-5, SNU-5, Stomach/Gastric) was 1.95 µM. It also gave an IC50 (Homo sapiens, SW626, SW626, Ovary) of 415 µM, an IC50 (Homo sapiens, SW756, SW756, Ovary) of 37.9 µM and an IC50 (Homo sapiens, SW982, SW982, Soft tissue) of 66 µM. It also gave an IC50 (Homo sapiens, WM 266-4, WM-266-4, Skin) of 32.4 µM, an AUCs (HuCCT1, Liver) of 3.24 and an AUCs (Hutu 80, Small intestine/Duodenum) of 2.69. It also gave an AUCs (IM95m, Stomach/Gastric) of 2.9, an IC50 (IM95m, Stomach/Gastric) of 0.601 µM and an AUCs (Ishikawa, Uterus) of 2.44. For the same compound, the AUCs (JAR, Placenta) was 2.57, the IC50 (JAR, Placenta) was 0.673 µM and the AUCs (JEG-3, Placenta) was 3.2. The AUCs (JHH-5, Liver) was 3.56, the AUCs (JIMT-1, Breast) was 3.62 and the AUCs (KATO III, Stomach/Gastric) was 3.2.
